Test results reported in patent US12540131B2 (Merck Sharp & Dohme LLC, priority 2019, dated 2026).

Target: GST tagged truncated human mutant G2019S LRRK2 (Homo sapiens (Human), UniProt Q5S007, G2019S)
Test: LRRK2 Km ATP LanthaScreen Assay
Assay type: biochemical
Conditions: G2019S LRRK2, 134 μM ATP (Km ATP), mean values; for IC50: read-out: LRRK2 pIC50 (converted)
Procedure, shortened: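 Enzyme (GST-tagged, truncated) was preincubated with compound for 15 min at RT in 50 mM Tris pH 8.5, 10 mM MgCl2, 0.01% Brij-35, 1 mM EGTA, 2 mM DTT and 0.05 mM orthovanadate. Fluorescein-LRRKtide and 134 μM ATP (Km) were then added for 90 min. EDTA and Tb-anti-pERM antibody stopped the reaction; the TR-FRET 520/495 ratio gave 4-parameter IC50s, reported as mean pIC50.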

GST tagged truncated human mutant G2019S LRRK2, sequence (Q5S007 970-2527 G2019S): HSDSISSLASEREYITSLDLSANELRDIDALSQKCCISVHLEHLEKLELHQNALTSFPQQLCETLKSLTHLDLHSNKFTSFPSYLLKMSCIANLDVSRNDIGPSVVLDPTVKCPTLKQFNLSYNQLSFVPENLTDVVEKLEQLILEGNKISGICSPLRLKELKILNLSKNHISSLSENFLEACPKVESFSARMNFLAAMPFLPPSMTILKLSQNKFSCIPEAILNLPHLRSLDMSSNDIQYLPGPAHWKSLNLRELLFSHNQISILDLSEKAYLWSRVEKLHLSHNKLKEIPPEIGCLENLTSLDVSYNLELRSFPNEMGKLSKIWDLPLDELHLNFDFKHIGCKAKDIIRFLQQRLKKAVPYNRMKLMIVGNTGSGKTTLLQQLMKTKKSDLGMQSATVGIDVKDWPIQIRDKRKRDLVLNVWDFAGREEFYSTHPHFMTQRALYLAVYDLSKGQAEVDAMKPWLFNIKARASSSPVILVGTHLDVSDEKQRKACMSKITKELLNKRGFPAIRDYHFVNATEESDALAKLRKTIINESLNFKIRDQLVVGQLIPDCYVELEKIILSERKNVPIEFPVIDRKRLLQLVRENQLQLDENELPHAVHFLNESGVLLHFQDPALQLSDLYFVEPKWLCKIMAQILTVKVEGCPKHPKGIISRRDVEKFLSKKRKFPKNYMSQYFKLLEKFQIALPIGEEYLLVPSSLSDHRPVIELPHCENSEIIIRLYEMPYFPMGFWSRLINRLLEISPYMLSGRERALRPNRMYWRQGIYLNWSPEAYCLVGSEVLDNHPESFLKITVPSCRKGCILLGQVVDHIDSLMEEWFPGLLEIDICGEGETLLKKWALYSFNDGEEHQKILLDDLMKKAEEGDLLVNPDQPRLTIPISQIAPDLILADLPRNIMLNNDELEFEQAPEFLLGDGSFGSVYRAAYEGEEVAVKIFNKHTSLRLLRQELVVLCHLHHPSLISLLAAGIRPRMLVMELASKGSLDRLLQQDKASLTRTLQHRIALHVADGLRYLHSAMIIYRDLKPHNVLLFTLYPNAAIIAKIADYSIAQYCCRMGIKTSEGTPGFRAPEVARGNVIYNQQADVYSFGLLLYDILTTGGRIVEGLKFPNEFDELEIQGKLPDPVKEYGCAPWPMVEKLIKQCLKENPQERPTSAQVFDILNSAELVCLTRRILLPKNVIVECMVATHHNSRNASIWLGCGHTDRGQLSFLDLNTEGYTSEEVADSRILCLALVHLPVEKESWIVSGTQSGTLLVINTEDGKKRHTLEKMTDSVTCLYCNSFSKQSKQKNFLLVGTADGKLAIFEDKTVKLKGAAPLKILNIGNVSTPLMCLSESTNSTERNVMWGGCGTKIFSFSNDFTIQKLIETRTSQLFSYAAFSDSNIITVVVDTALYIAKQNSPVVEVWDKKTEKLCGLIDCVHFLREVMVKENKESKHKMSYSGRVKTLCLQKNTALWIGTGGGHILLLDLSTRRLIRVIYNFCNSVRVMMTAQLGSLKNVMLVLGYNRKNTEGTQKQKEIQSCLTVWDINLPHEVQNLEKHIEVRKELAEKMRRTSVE

Structure (SMILES) | IC50 | LRRK2 pIC50
Cc1c(Nc2ncc3cc(Cl)c(C4CCN(CC(O)Cc5ccccc5)CC4)cc3n2)cnn1C1CC1 (single isomer, unassigned) [Ex-4.219, (S) or (R) 1-(4-{6-chloro-2-[(1-cyclopropyl-5-methyl-1H-pyrazol-4-yl)amino]quinazolin-7-yl}piperidin-1-yl)-3-phenylpropan-2-ol] | 4.68 nM | –
Cc1c(Nc2ncc3cc(Cl)c(C4CCN(CC(O)c5ccc(C#N)cc5)CC4)cc3n2)cnn1C1CC1 (single isomer, unassigned) [Ex-4.220, (S) or (R) 4-[2-(4-{6-chloro-2-[(1-cyclopropyl-5-methyl-1H-pyrazol-4-yl)amino]quinazolin-7-yl}piperidin-1-yl)-1-hydroxyethyl]benzonitrile] | 6.17 nM | –
Cc1c(Nc2ncc3cc(Cl)c(C4CCN(CC(O)CN5CCOC5=O)CC4)cc3n2)cnn1C1CC1 (single isomer, unassigned) [Ex-4.221, (S) or (R) 3-[3-(4-{6-chloro-2-[(1-cyclopropyl-5-methyl-1H-pyrazol-4-yl)amino]quinazolin-7-yl}piperidin-1-yl)-2-hydroxypropyl]-1,3-oxazolidin-2-one] | < 0.631 nM | –
Cc1c(Nc2ncc3cc(Cl)c(C4CCN(CC(C)(O)c5ccccc5)CC4)cc3n2)cnn1C1CC1 (single isomer, unassigned) [Ex-4.223, (S) or (R) 1-(4-{6-chloro-2-[(1-cyclopropyl-5-methyl-1H-pyrazol-4-yl)amino]quinazolin-7-yl}piperidin-1-yl)-2-phenylpropan-2-ol] | 2.45 nM | –
Cc1c(Nc2ncc3cc(Cl)c(C4CCN(CC(O)c5ccc(Cl)cc5)CC4)cc3n2)cnn1C1CC1 (single isomer, unassigned) [Ex-4.224, (S) or (R) 2-(4-{6-chloro-2-[(1-cyclopropyl-5-methyl-1H-pyrazol-4-yl)amino]quinazolin-7-yl}piperidin-1-yl)-1-(4-chlorophenyl)ethan-1-ol] | 13.8 nM | –
Cc1c(Nc2ncc3cc(Cl)c(C4CCN(CC(O)c5ccc(Cl)cc5)CC4)cc3n2)cnn1C1CC1 (single isomer, unassigned) [Ex-4.225, (S) or (R) 2-(4-{6-chloro-2-[(1-cyclopropyl-5-methyl-1H-pyrazol-4-yl)amino]quinazolin-7-yl}piperidin-1-yl)-1-(4-chlorophenyl)ethan-1-ol] | 21.4 nM | –
Cc1c(Nc2ncc3cc(Cl)c(C4CCN(CC(O)c5ccc(C#N)cc5)CC4)cc3n2)cnn1C1CC1 (single isomer, unassigned) [Ex-4.226, (S) or (R) 4-[2-(4-{6-chloro-2-[(1-cyclopropyl-5-methyl-1H-pyrazol-4-yl)amino]quinazolin-7-yl}piperidin-1-yl)-1-hydroxyethyl]benzonitrile] | 3.72 nM | –
Cc1c(Nc2ncc3cc(Cl)c(C4CCN(CC(O)CN5CCOCC5)CC4)cc3n2)cnn1C1CC1 (single isomer, unassigned) [Ex-4.227, (S) or (R) 1-(4-{6-chloro-2-[(1-cyclopropyl-5-methyl-1H-pyrazol-4-yl)amino]quinazolin-7-yl}piperidin-1-yl)-3-(morpholin-4-yl)propan-2-ol] | < 0.631 nM | –
Cc1c(Nc2ncc3cc(Cl)c(C4CCN(CC(O)CN5CCOCC5)CC4)cc3n2)cnn1C1CC1 (single isomer, unassigned) [Ex-4.228, (S) or (R) 1-(4-{6-chloro-2-[(1-cyclopropyl-5-methyl-1H-pyrazol-4-yl)amino]quinazolin-7-yl}piperidin-1-yl)-3-(morpholin-4-yl)propan-2-ol] | 1.55 nM | –
C[C@@]1(N2CC[C@@H](c3cc4nc(Nc5cnn(C6CC6(F)F)c5Cl)ncc4cc3Cl)[C@H](F)C2)COC[C@@H]1O (single isomer, unassigned) [Ex-4.230, (R)(3S,4S)(3S,4S) or (R)(3S,4S)(3R,4R) or (R)(3R,4R)(3S,4S) or (R)(3R,4R)(3R,4R) or (S)(3S,4S)(3S,4S) or (S)(3S,4S)(3R,4R) or (S)(3R,4R)(3S,4S) or (S)(3R,4R)(3R,4R) 4-(4-(6-chloro-2-((5-chloro-1-(2,2-difluorocyclopropyl)-1H-pyrazol-4-yl)amino)quinazolin-7-yl)-3-fluoropiperidin-1-yl)-4-methyltetrahydrofuran-3-ol] | – | 9.13
O[C@H]1COC[C@H]1N1CC[C@@H](c2cc3nc(Nc4cnn(C56CC(F)(C5)C6)c4Cl)ncc3cc2Cl)[C@H](F)C1 (single isomer, unassigned) [Ex-4.231, (3S,4S)(3S,4S) or (3S,4S)(3R,4R) or (3R,4R)(3S,4S) or (3R,4R)(3R,4R) 4-[4-(6-chloro-2-{[5-chloro-1-(3-fluorobicyclo[1.1.1]pentan-1-yl)-1H-pyrazol-4-yl]amino}quinazolin-7-yl)-3-fluoropiperidin-1-yl]oxolan-3-ol] | – | >9.20
Cc1cc2cnc(Nc3cnn(C45CC(F)(C4)C5)c3Cl)nc2cc1[C@@H]1CCN([C@@H]2COC[C@@H]2O)C[C@H]1F (single isomer, unassigned) [Ex-4.232, (3S,4S)(3S,4S) or (3S,4S)(3R,4R) or (3R,4R)(3S,4S) or (3R,4R)(3R,4R) 4-[4-(2-{[5-chloro-1-(3-fluorobicyclo[1.1.1]pentan-1-yl)-1H-pyrazol-4-yl]amino}-6-methylquinazolin-7-yl)-3-fluoropiperidin-1-yl]oxolan-3-ol] | – | >9.20
Cn1ncc(Nc2ncc3cc(Cl)c([C@@H]4CCN([C@]5(C)COC[C@@H]5O)C[C@H]4F)cc3n2)c1Cl (single isomer, unassigned) [Ex-4.233, (3S,4S)(3S,4S) or (3S,4S)(3R,4R) or (3R,4R)(3S,4S) or (3R,4R)(3R,4R) 4-(4-{6-chloro-2-[(5-chloro-1-methyl-1H-pyrazol-4-yl)amino]quinazolin-7-yl}-3-fluoropiperidin-1-yl)-4-methyloxolan-3-ol] | – | >9.20
Cn1ncc(Nc2ncc3cc(Cl)c([C@@H]4CCN([C@@]5(C)COC[C@H]5O)C[C@H]4F)cc3n2)c1Cl (single isomer, unassigned) [Ex-4.234, (3S,4S)(3S,4S) or (3S,4S)(3R,4R) or (3R,4R)(3S,4S) or (3R,4R)(3R,4R) 4-(4-{6-chloro-2-[(5-chloro-1-methyl-1H-pyrazol-4-yl)amino]quinazolin-7-yl}-3-fluoropiperidin-1-yl)-4-methyloxolan-3-ol] | – | 7.23
Cc1cc(Nc2ncc3cc(Cl)c(C4CCN(C5COCC5O)CC4F)cc3n2)n(C)n1 (single isomer, unassigned) [Ex-4.235, (3S,4S)(3S,4S) or (3S,4S)(3R,4R) or (3R,4R)(3S,4S) or (3R,4R)(3R,4R) 4-(4-{6-chloro-2-[(1,3-dimethyl-1H-pyrazol-5-yl)amino]quinazolin-7-yl}-3-fluoropiperidin-1-yl)oxolan-3-ol] | – | 8.84
Cc1cc(Nc2ncc3cc(Cl)c(C4CCN(C5COCC5O)CC4F)cc3n2)n(C)n1 (single isomer, unassigned) [Ex-4.236, (3S,4S)(3S,4S) or (3S,4S)(3R,4R) or (3R,4R)(3S,4S) or (3R,4R)(3R,4R) 4-(4-{6-chloro-2-[(1,3-dimethyl-1H-pyrazol-5-yl)amino]quinazolin-7-yl}-3-fluoropiperidin-1-yl)oxolan-3-ol] | – | 6.61
Cn1ncc(Nc2ncc3cc(Cl)c([C@@H]4CCN([C@@]5(C)COC[C@H]5O)C[C@H]4F)cc3n2)c1Cl (single isomer, unassigned) [Ex-4.238, (3S,4S)(3S,4S) or (3S,4S)(3R,4R) or (3R,4R)(3S,4S) or (3R,4R)(3R,4R) 4-(4-{6-chloro-2-[(5-chloro-1-methyl-1H-pyrazol-4-yl)amino]quinazolin-7-yl}-3-fluoropiperidin-1-yl)-4-methyloxolan-3-ol] | – | 7.40
Cn1ncc(Nc2ncc3cc(Cl)c([C@@H]4CCN([C@@H]5COC[C@@H]5O)C[C@H]4F)cc3n2)c1C1CC1 (single isomer, unassigned) [Ex-4.239, (3S,4S)(3S,4S) or (3S,4S)(3R,4R) or (3R,4R)(3S,4S) or (3R,4R)(3R,4R) 4-(4-{6-chloro-2-[(5-cyclopropyl-1-methyl-1H-pyrazol-4-yl)amino]quinazolin-7-yl}-3-fluoropiperidin-1-yl)oxolan-3-ol] | – | >9.20
Cn1ncc(Nc2ncc3cc(Cl)c([C@@H]4CCN([C@H]5COC[C@H]5O)C[C@H]4F)cc3n2)c1C1CC1 (single isomer, unassigned) [Ex-4.240, (3S,4S)(3S,4S) or (3S,4S)(3R,4R) or (3R,4R)(3S,4S) or (3R,4R)(3R,4R) 4-(4-{6-chloro-2-[(5-cyclopropyl-1-methyl-1H-pyrazol-4-yl)amino]quinazolin-7-yl}-3-fluoropiperidin-1-yl)oxolan-3-ol] | – | 7.57
Cn1ncc(Nc2ncc3cc(Cl)c([C@H]4CCN([C@@H]5COC[C@@H]5O)C[C@@H]4F)cc3n2)c1C1CC1 (single isomer, unassigned) [Ex-4.241, (3S,4S)(3S,4S) or (3S,4S)(3R,4R) or (3R,4R)(3S,4S) or (3R,4R)(3R,4R) 4-(4-{6-chloro-2-[(5-cyclopropyl-1-methyl-1H-pyrazol-4-yl)amino]quinazolin-7-yl}-3-fluoropiperidin-1-yl)oxolan-3-ol] | – | >9.20
Cn1ncc(Nc2ncc3cc(Cl)c([C@H]4CCN([C@H]5COC[C@H]5O)C[C@@H]4F)cc3n2)c1C1CC1 (single isomer, unassigned) [Ex-4.242, (3S,4S)(3S,4S) or (3S,4S)(3R,4R) or (3R,4R)(3S,4S) or (3R,4R)(3R,4R) 4-(4-{6-chloro-2-[(5-cyclopropyl-1-methyl-1H-pyrazol-4-yl)amino]quinazolin-7-yl}-3-fluoropiperidin-1-yl)oxolan-3-ol] | – | 7.67
